According to the NIST ThermoML archive (doi:10.1016/j.fluid.2013.08.026):

Settings: for surface tension liquid-gas: Maximal bubble pressure; for mass density: 101.33 kPa, Liquid, Buoyancy - hydrostatic balance

CCCCCCCn1cc[n+](C)c1.[Br-] [1-heptyl-3-methylimidazolium bromide]
Settings	mass density [kg/m3]	surface tension liquid-gas [mN/m]
293.15 K	1249	37.8
298.15 K	1245.9	37.5
303.15 K	1242.3	37.2
308.15 K	1239.1	36.8
313.15 K	1236	36.5
318.15 K	1232.8	36.1
323.15 K	1229.7	35.9
328.15 K	1226.4	35.6
333.15 K	1222.8	35.3
338.15 K	1219.9	35
343.15 K	1216.6	34.6
